Laboratory results published in patent publication US8754073B2, “Substituted piperazino-dihydrothienopyrimidines” (Boehringer Ingelheim International GmbH, priority 2007, dated 2014).
Where a name gives a salt, the structure may show the parent alone.

biological target: PDE4B (Homo sapiens, UniProt Q07343); assay: Scintillation Proximity Assay (SPA) of PDE4B enzyme activity ([H3]-cAMP cleavage); type: biochemical; settings: test substance 1 μM; one-hour incubation of [H3]-cAMP with PDE4B enzyme at 30° C.
Sequence (Q07343 whole entry, species assumed): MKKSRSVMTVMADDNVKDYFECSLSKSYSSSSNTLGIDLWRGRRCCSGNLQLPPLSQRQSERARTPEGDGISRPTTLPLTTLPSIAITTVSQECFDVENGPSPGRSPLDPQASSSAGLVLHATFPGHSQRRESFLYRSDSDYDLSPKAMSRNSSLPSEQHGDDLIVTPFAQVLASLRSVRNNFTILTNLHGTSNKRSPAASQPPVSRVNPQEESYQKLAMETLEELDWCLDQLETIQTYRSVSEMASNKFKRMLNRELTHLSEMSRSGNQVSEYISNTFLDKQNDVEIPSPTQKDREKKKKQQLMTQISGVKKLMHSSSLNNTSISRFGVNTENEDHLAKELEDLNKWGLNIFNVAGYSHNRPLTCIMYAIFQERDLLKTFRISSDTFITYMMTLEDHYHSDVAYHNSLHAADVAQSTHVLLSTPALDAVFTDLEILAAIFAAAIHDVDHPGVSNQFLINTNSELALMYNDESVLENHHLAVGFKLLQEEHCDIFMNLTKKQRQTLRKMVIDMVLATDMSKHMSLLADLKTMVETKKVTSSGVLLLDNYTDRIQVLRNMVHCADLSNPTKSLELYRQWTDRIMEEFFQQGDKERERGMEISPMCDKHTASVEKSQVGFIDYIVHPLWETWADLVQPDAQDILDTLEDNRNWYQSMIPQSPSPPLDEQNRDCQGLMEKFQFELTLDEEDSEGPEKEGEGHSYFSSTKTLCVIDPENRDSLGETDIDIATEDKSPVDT
In short: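 SPA read-out: [H3]-cAMP incubated with PDE4B in assay buffer for 1 h at 30 °C, with and without test compound at 1 μM. Reaction stopped by adding yttrium silicate beads that bind the [H3]-AMP product; after 45 min settling, scintillation counted. Value is % inhibition at 1 μM.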

SMILES | inhibition at 1 µM [%]
[O-][S+]1CCc2nc(N3CCC(O)(c4cc(F)cc(F)c4)CC3)nc(NC3CCOCC3)c21 (stereo not drawn) [Example 62] | 96
CC(C)[C@H](CO)Nc1nc(N2CCC(c3nc(-c4ccncc4)no3)CC2)nc2c1[S+]([O-])CC2 (stereo partly drawn) [Example 163, (R)-3-Methyl-2-{5-Oxo-2-[4-(3-Pyridin-4-Yl-[1,2,4]Oxadiazol-5-Yl)-Piperidin-1-Yl]-6,7-Dihydro-5H-5λ^4-Thieno[3,2-d]Pyrimidin-4-Ylamino}-Butan-1-Ol Trifluoroacetate] | 92
[O-][S+]1CCc2nc(N3CCC(c4ccccc4F)CC3)nc(NC3(CO)CC3)c21 (stereo not drawn) [Example 87] | 92
Cc1cccc(C2CCN(c3nc4c(c(NC5CCOCC5)n3)[S+]([O-])CC4)CC2)c1 (stereo not drawn) [Example 7] | 93
[O-][S+]1CCc2nc(N3CCC(c4noc5cc(F)ccc45)CC3)nc(NC3CCOCC3)c21 (stereo not drawn) [Example 121] | 96
[O-][S+]1CCc2nc(N3CCC(c4cc(-c5ccco5)n[nH]4)CC3)nc(NC3(CO)CC3)c21 (stereo not drawn) [Example 114] | 96
CCc1[nH]c2ccc(F)cc2c1C1CCN(c2nc3c(c(N[C@H]4CCC(=O)N(C)C4)n2)[S+]([O-])CC3)CC1 (stereo partly drawn) [Example 52] | 96
[O-][S+]1CCc2nc(N3CCC(c4ccc(Br)cc4)CC3)nc(NC3(CO)CC3)c21 (stereo not drawn) [Example 92, (1-{2-[4-(4-Bromophenyl)-Piperidin-1-Yl]-5-Oxo-6,7-Dihydro-5H-5λ^4-Thieno[3,2-d]Pyrimidin-4-Ylamino}-Cyclopropyl)-Methanol] | 94
[O-][S+]1CCc2nc(N3CCC(c4ccncc4)CC3)nc(NC3(CO)CC3)c21 (stereo not drawn) [Example 34] | 92
CC(C)[C@H](CO)Nc1nc(N2CCC(c3noc4cc(F)ccc34)CC2)nc2c1[S+]([O-])CC2 (stereo partly drawn) [Example 152] | 95
Cc1noc(C2CCN(c3nc4c(c(NC5(CO)CC5)n3)[S+]([O-])CC4)CC2)n1 (stereo not drawn) [Example 38] | 92
CCOC(=O)c1ccc2c(C3CCN(c4nc5c(c(NC6(CO)CC6)n4)[S+]([O-])CC5)CC3)c[nH]c2c1 (stereo not drawn) [Example 29, ethyl 3-{1-[4-(1-hydroxymethylcyclopropylamino)-5-oxo-6,7-dihydro-5H-5λ^4-thieno[3,2-d]pyrimidin-2-yl]-piperidin-4-yl}-1H-indole-6-carboxylate] | 97
CN1C[C@@H](Nc2nc(N3CCC(c4c[nH]cn4)CC3)nc3c2[S+]([O-])CC3)CCC1=O (stereo partly drawn) [Example 42] | 95
[O-][S+]1CCc2nc(N3CCC(c4nc(-c5cccnc5)no4)CC3)nc(Nc3cccc(F)c3)c21 (stereo not drawn) [Example 146] | 96
CN1C[C@@H](Nc2nc(N3CCC(c4cccc(O)c4)CC3)nc3c2[S+]([O-])CC3)CCC1=O (stereo partly drawn) [Example 46] | 97
CN1C[C@@H](Nc2nc(N3CCC4(CC3)OC(=O)Nc3ccccc34)nc3c2[S+]([O-])CC3)CCC1=O (stereo partly drawn) [Example 50] | 95
CN1C[C@@H](Nc2nc(N3CCC(c4cccc(Cl)c4)CC3)nc3c2[S+]([O-])CC3)CCC1=O (stereo partly drawn) [Example 54] | 97
[O-][S+]1CCc2nc(N3CCC(c4c[nH]cn4)CC3)nc(NC3CCOCC3)c21 (stereo not drawn) [Example 57] | 86
CN1C(=O)Nc2ccccc2C12CCN(c1nc3c(c(NC4(CO)CC4)n1)[S+]([O-])CC3)CC2 (stereo not drawn) [Example 28, 1-(4-(1-Hydroxymethylcyclopropylamino)-5-Oxo-6,7-Dihydro-5H-5λ^4-Thieno[3,2-d]Pyrimidin-2-Yl)-3′-Methyl-1′H-Spiro[Piperidin-4,4′-Quinazolin]-2′(3′H)-One] | 85
CC(C)[C@H](CO)Nc1nc(N2CCC(c3noc4ccc(F)cc34)CC2)nc2c1[S+]([O-])CC2 (stereo partly drawn) [Example 153] | 95
CN1C[C@@H](Nc2nc(N3CCC4(CC3)c3ccccc3NC(=O)N4C)nc3c2[S+]([O-])CC3)CCC1=O (stereo partly drawn) [Example 43, (S)-3′-Methyl-1-(4-(1-Methyl-6-Oxopiperidin-3-Ylamino)-5-Oxo-6,7-Dihydro-5H-5λ^4-Thieno[3,2-d]Pyrimidin-2-YL)-3′-Methyl-1′H-Spiro[Piperidin-4,4′-Quinazolin]-2′(3′H)-One] | 95
COC(=O)c1cccc(C2CCN(c3nc4c(c(N[C@@H](CO)C(C)C)n3)[S+]([O-])CC4)CC2)c1 (stereo partly drawn) [Example 151] | 94
[O-][S+]1CCc2nc(N3CCC(c4nc5cc(Cl)ccc5s4)CC3)nc(Nc3cccc(F)c3)c21 (stereo not drawn) [Example 134] | 95
[O-][S+]1CCc2nc(N3CCC(c4noc5ccc(F)cc45)CC3)nc(NC3(CO)CC3)c21 (stereo not drawn) [Example 106] | 95
COC(=O)c1ccc(C2CCN(c3nc4c(c(NC5CCOCC5)n3)[S+]([O-])CC4)CC2)cc1 (stereo not drawn) [Example 119] | 95
CC(C)[C@H](CO)Nc1nc(N2CCC(C#N)(c3ccccc3)CC2)nc2c1[S+]([O-])CC2 (stereo partly drawn) [Example 25] | 90
[O-][S+]1CCc2nc(N3CCC(c4ccc5ccccc5c4)CC3)nc(NC3(CO)CC3)c21 (stereo not drawn) [Example 111] | 96

same assay, conditions: test substance 1 μM; one-hour incubation with [H3]-cAMP at 30° C.

SMILES | inhibition at 1 µM [%]
CN(C(=O)c1ccc(OC2CCN(c3nc4c(c(NC5CCOCC5)n3)[S+]([O-])CC4)CC2)cc1)C1CC1 (stereo not drawn) [Example 242, N-Cyclopropyl-N-Methyl-4-{1-[5-Oxo-4-(Tetrahydropyran-4-Ylamino)-6,7-Dihydro-5H-5λ^4-Thieno[3,2-d]Pyrimidin-2-Yl]-Piperidin-4-Yloxy}-Benzamide] | 94
CN(C(=O)c1ccc(C2CCN(c3nc4c(c(NC5CCOCC5)n3)[S+]([O-])CC4)CC2)cc1)C1CCOCC1 (stereo not drawn) [Example 224] | 93
CN1CCc2ccc(OC3CCN(c4nc5c(c(NC6CCOCC6)n4)[S+]([O-])CC5)CC3)cc2CC1 (stereo not drawn) [Example 186, (2-[4-(3-Methyl-2,3,4,5-Tetrahydro-1H-Benzo[d]Azepin-7-Yloxy)-Piperidin-1-Yl]-5-Oxo-6,7-Dihydro-5H-5λ^4-Thieno[3,2-d]Pyrimidin-4-Yl)-(Tetrahydropyran-4-Yl)-Amine] | 96
[O-][S+]1CCc2nc(N3CCC(Oc4ccc5c(c4)CCNCC5)CC3)nc(NC3CCOCC3)c21 (stereo not drawn) [Example 183, (5-Oxo-2-[4-(2,3,4,5-Tetrahydro-1H-Benzo[d]Azepin-7-Yloxy)-Piperidin-1-Yl]-6,7-Dihydro-5H-5λ^4-Thieno[3,2-d]Pyrimidin-4-Yl)-(Tetrahydropyran-4-Yl)-Amine] | 91
N[C@@H]1CC1Nc1nc(N2CCC(c3ccc(Cl)cc3)CC2)nc2c1[S+]([O-])CC2 (stereo partly drawn) [Example 245, N-{2-[4-(4-Chlorophenyl)-Piperidin-1-Yl]-5-Oxo-6,7-Dihydro-5H-5λ^4-Thieno[3,2-d]Pyrimidin-4-Yl}-Cyclopropan-1,2-Diamine] | 68
CC(C)c1ccccc1OC1CCN(c2nc3c(c(N[C@H]4CCC(=O)N(C)C4)n2)[S+]([O-])CC3)CC1 (stereo partly drawn) [Example 266] | 95
CC(C)[C@H](CO)Nc1nc(N2CCC(Oc3ccc(F)cc3)CC2)nc2c1[S+]([O-])CC2 (stereo partly drawn) [Example 168] | 89
[O-][S+]1CCc2nc(N3CCC(c4n[nH]c5ccccc45)CC3)nc(NC3CCOCC3)c21 (stereo not drawn) [Example 221] | 94
NC1CC1Nc1nc(N2CCC(c3ccc(Cl)cc3)CC2)nc2c1[S+]([O-])CC2 (single isomer, unassigned) [Example 232, N-{2-[4-(4-Chlorophenyl)-Piperidin-1-Yl]-5-Oxo-6,7-Dihydro-5H-5λ^4-Thieno[3,2-d]Pyrimidin-4-Yl}-Cyclopropan-1,2-Diamine] | 84
[O-][S+]1CCc2nc(N3CCC(COCc4ccccc4)(c4ccc(Cl)cc4)CC3)nc(NC3CCOCC3)c21 (stereo not drawn) [Example 310] | 92
CC(C)[C@H](CO)Nc1nc(N2CCC(CO)(c3ccc(Cl)cc3)CC2)nc2c1[S+]([O-])CC2 (stereo partly drawn) [Example 300] | 86
CC(C)(NC(=O)c1ccc(OC2CCN(c3nc4c(c(NC5CCOCC5)n3)[S+]([O-])CC4)CC2)cc1)c1ccncc1 (stereo not drawn) [Example 236] | 95
CN1C[C@@H](Nc2nc(N3CCC(c4nc(-c5ccncc5)no4)CC3)nc3c2[S+]([O-])CC3)CCC1=O (stereo partly drawn) [Example 188] | 97
CN1C[C@@H](Nc2nc(N3CCC(CO)(c4ccc(Cl)cc4)CC3)nc3c2[S+]([O-])CC3)CCC1=O (stereo partly drawn) [Example 246, 5-{2-[4-(4-Chlorophenyl)-4-Hydroxymethylpiperidin-1-Yl]-5-Oxo-6,7-Dihydro-5H-5λ^4-Thieno[3,2-d]Pyrimidin-4-Ylamino}-1-Methyl Piperidin-2-One] | 93
[O-][S+]1CCc2nc(N3CCC(c4nc5c(o4)CCCC5)CC3)nc(NC3CCOCC3)c21 (stereo not drawn) [Example 329] | 95
COC(=O)c1ccc(OC2CCN(c3nc4c(c(NC5CCOCC5)n3)[S+]([O-])CC4)CC2)cc1 (stereo not drawn) [Example 176] | 93
Cc1nn(C)cc1C(C)NC(=O)c1cccc(C2CCN(c3nc4c(c(NC5CCOCC5)n3)[S+]([O-])CC4)CC2)c1 (stereo not drawn) [Example 251] | 90
COCC1(c2ccc(Cl)cc2)CCN(c2nc3c(c(N[C@@H](CO)C(C)C)n2)[S+]([O-])CC3)CC1 (stereo partly drawn) [Example 304] | 89
CC(C)(NC(=O)c1ccc(C2CCN(c3nc4c(c(NC5CCOCC5)n3)[S+]([O-])CC4)CC2)cc1)c1ccncc1 (stereo not drawn) [Example 223] | 80
O=C(c1cccc(C2CCN(c3nc4c(c(NC5CCOCC5)n3)[S+]([O-])CC4)CC2)c1)N(C1CCOCC1)C1CC1 (stereo not drawn) [Example 257] | 94
O=C(O)c1ccc(OC2CCN(c3nc4c(c(NC5CCOCC5)n3)[S+]([O-])CC4)CC2)cc1 (stereo not drawn) [Example 184, 4-{1-[5-Oxo-4-(Tetrahydropyran-4-Ylamino)-6,7-Dihydro-5H-5λ^4-Thieno[3,2-d]Pyrimidin-2-Yl]-Piperidin-4-Yloxy}-Benzoic Acid] | 92
